The values that follow come from patent US20240239786A1, “COMPOSITIONS AND METHODS FOR THE TREATMENT AND PREVENTION OF CANCER” (Yale University, priority 2021, published 2024).

Molecules are shown by their SMILES.

In series [1] the test system is MDA-MB231 breast cancer cells. The series can be described thus: Clonogenic assay, MDA-MB231. It counts as cell-based. To be noted: DB4 at 3 μM, 14 days. The procedure:
Cells were plated for 24 hr, pre-treated with DB4 for 1 hr, and then treated with various concentrations of olaparib for 14 days. Colonies were stained and determined for clonogenic survival.
To further substantiate the effectiveness of DB4 and mitigate the issue of off-target effects with a higher concentration range of drugs used in the MTS cytotoxicity assay, clonogenic assays were carried out to determine the long-term survival of cells in response to treatments.
The assay was conducted as described previously (Lin Z P et al., 2014, Molecular Cancer Res, 12:381-393). Cells were plated at various densities in 6-well plates in triplicate. After 24 hr of incubation, cells were treated continuously with various concentrations of olaparib, DB4, or both drugs in combination. After 12-14 days, colonies were fixed/stained with crystal violet solution and counted to determine the percentage of survival using a GelDoc imaging system with QuantityOne software (Bio-Rad, Hercules, CA).

The subject of another series is cNHEJ activity. The series can be described thus: NHEJ reporter assay in SKOV3-EJ5-GFP cells. Format: cell-based. To be noted: I-SceI-mediated DSBs. The source says: Cells were transfected with the ISceI-expressing plasmid and then treated various concentrations of DB4 for 48 hr. Cells were harvested, stained with 7-AAD, and analyzed by flow cytometry for GFP-positive cells indicative of HR repair activity. […] Cells were transfected with the ISceI-expressing plasmid and treated with various concentrations of DB4. Cells were harvested, stained with 7-AAD, and stained, and analyzed by flow cytometry for GFP-positive cells indicative of NHEJ activity. Data are means±SD (N=3). *, p<0.05; **, p<0.01, compared with the 0 μM control of ISceI-transected cells. FIG. 7C depicts representative results of confocal imaging of olaparib-induced nuclear Rad51 foci in SKOV3 cells treated DB4. […] Cells were also scored for nuclei containing equal or more than 10 distinct Rad51 foci to determine the percentage of cells positive for Rad51 foci. […] Protein was assessed by western blot analysis for the levels of γH2AX, p-H1, cyclin A2, p-CDK1/2, and HSC70. […] The band density of γH2AX indicative of DSBs was quantified by densitometry. […]
SKOV3-DR-GFP cells were established as described previously (Lin Z P et al., 2014, Molecular Cancer Res, 12:381-393). […] Cells were then trypsinized, stained with 7-AAD, and analyzed for the percentage of GFP-positive and […] cells by flow cytometry using an LSR II flow cytometer (BD Biosciences) and FlowJo software (Tree Star; Ashland, OR). […]
Background: Reporter assays use an easily measured gene product as a stand-in for the process of interest.

A short description of series [2]: Chemical stability of DB4: potency after pre-incubation in cell-free medium (EdU readout). It counts as physicochemical. To be noted: pre-incubated in cell-free medium at 37° C. up to 72 hr; PEO4 cells. As to the method: DB4 remained mostly active and intact after 72 hr in the culture medium. The dose response curve of DB4 in DNA synthesis inhibition in PEO4 cells was generated as determined by EdU flow cytometric analysis. […] PEO4 cells were treated with these media for 24 hr. The level of DNA synthesis inhibition was determined to interpolate and calculate % DB4 remaining compared with the control at 0 hr. FIG. 5B depicts representative results for remaining DB4 after DB4 (MW=496.1) was added to the culture medium at 50 μM for 0 hr, 24 hr, 48 hr, or 72 hr at 37° C. FIG. 5C depicts representative mass spectrum obtained from mass spectrometry that was run to detect the level of the 496.13 ion at 0 hr. FIG. 5D depicts representative mass spectrum obtained from mass spectrometry that was run to detect the level of the 496.13 ion at 72 hr.
To ensure that DB4 remained chemically stable, the time course study was performed by determining the potency of DB4 following a pre-incubation in the cell-free medium at 37° C. for up to 72 hr. Cells were treated for 24 hr with the medium containing pre-incubated DB4 and DNA synthesis was determined by the EdU incorporation assay.

For `C=CCn1c(SCc2cccc(Cl)c2)nnc1C1CCN(Cc2nc3ccccc3s2)CC1` [DB4, 2-[(4-{4-allyl-5-[(3-chlorobenzyl)thio]-4H-1,2,4-triazol-3-yl}-1-piperidinyl)methyl]-1,3-benzothiazole], in series [1], the “clonogenic survival in the presence of olaparib” value is listed as “effectively reduced the clonogenic survival”. The cNHEJ activity result with cNHEJ activity is “appeared to enhance the cNHEJ activity induced by I-SceI-mediated DSBs but the increase was not statistically significant”. Moreover, the “activity to inhibit DNA synthesis after pre-incubation” value in series [2] was “more than 82%”.
